Literature values in patent US20060258708A1, “Method for treating Parkinson's disease and other neurological diseases” (priority 2005, published 2006).

Legend:
[1] = system: tumor necrosis factor alpha production by stimulated monocytes
[2] = humans
[3] = racemic thalidomide, animals

O=C1CCC(N2C(=O)c3ccccc3C2=O)C(=O)N1 (racemic) [Thalidomide, N-phthalidoglutarimide]
effect on tumor necrosis factor alpha production [1]: inhibit | maximal blood concentration ([2]; 100 to 200 mg ingested): 0.9 to 1.5 mg/L | time at which maximal blood concentration is attained ([2]; 100 to 200 mg ingested): 4 to 6 h | oral absorption ([2]; orally administered): poorly absorbed | toxicity in a series of animal studies [3]: has not been toxic
